Marks after values point to notes of the source that are not given here.
How the values were obtained:
Test in all cases: 10-day proliferation (CTG), SPLAM titration + 1000 nM Compound A, Bliss (Example 5; Tables 12-19)
Assay type in all cases: cell-based
Parameters in all cases: key: GDI scale -100 to 100; 0 = cell number at T0; <0 cytotoxic
Settings in all cases: alone or + 1 uM Cmpd A
[1] = tested on: NCI-H838
Method: (§1) Synergy was measured across the Indisulam titration with 1000 nM Compound A by Bliss Independence analysis. Bliss scores >10 are indicated by “*” and are considered synergistic. […] Synergy as reported using Bliss may be underrepresented within cytotoxic dose ranges. Growth death index values are shown for the combination titration and each single agent Compound A (Cmpd A) and Indisulam on a scale of −100 to 100 with the midpoint (0) being the number of cells at the beginning of the combination (T0). Scores less than 0 are indicated with “**” and are representative of a cytotoxic response. Bliss and GDI values are shown for five MTAP-deficient cell lines: NCI-1H838 (12A), SW900 (12B), RT112/84 (12C), UMUC5 (121D), and UMUC11 (12E).
(§2) A 10-day proliferation assay was performed in a panel of 5 MTAP-deficient and 2 wild type non-small cell lung and bladder cancer cell lines. Optimal cell seeding for all cell lines was determined by assessing the growth over a range of seeding densities in a 384-well format to identify conditions that permitted proliferation for 10 days. Cells were then plated at the optimal seeding density and treated with 20-point, two-fold dilution series of each of four structurally different SPLAMs in combination with a 1000 nM fixed concentration of Compound A. Single agent titrations for Compound A and each SPLAM were included for comparison. Concentrations tested for each SPLAM alone or in combination ranged from 0.04 nM to 20,000 nM. A plate of cells was harvested at the time of compound addition to quantify the number of cells at the start of the combination (T0). For cell quantification, the harvested cells were lysed with Promega CellTiter-Glo (CTG) reagent according to the manufacturer's protocol and the chemiluminescent signal was detected as described in Example 1 above. Cells were incubated with the drug combinations at 37° C. with 5% CO2 for 10 days. Cells were then lysed with CTG and the chemiluminescent signal was measured.
(§3) CTG values obtained after the 10-day treatment were background subtracted and expressed as a percent of the T0 value set at 100%. Data were plotted against compound concentration and fit with a four-parameter equation to generate single agent dose response curves. Percent inhibition was determined for each combination and single agent concentration compared to a DMSO control. In addition, the overall net growth or death of the cells was calculated and reported as a growth death index (GDI) value on a scale of −100 to 100 with the midpoint (0) being the number of cells at the beginning of the combination (T0).
(§4) Predicted inhibition was calculated using (Ea+Eb)−(Ea*Eb) where E equals the effect (inhibition) of each single agent (a and b). A difference between the observed inhibition percentage and the predicted inhibition percentage greater than 10% was considered synergistic. A Bliss score was only reported for combinations eliciting >20% growth inhibition (GDI value <80). Since Bliss is calculated based on growth inhibition, scores within cytotoxic dose ranges may not accurately reflect synergistic cytoxicity.
(§5) Synergy was measured across the E7820 titration with 1000 nM Compound A by Bliss Independence analysis. Bliss scores >10 are indicated by “*” and are considered synergistic. […] Synergy as reported using Bliss may be underrepresented within cytotoxic dose ranges. Growth death index values are shown for the combination titration and each single agent Compound A (Cmpd A) and Indisulam on a scale of −100 to 100 with the midpoint (0) being the number of cells at the beginning of the combination (T0). Scores less than 0 are indicated by “**” and are representative of a cytotoxic response. Bliss and GDI values are shown for five MTAP-deficient cell lines: NCI-1H838 (14A), SW900 (14B), RT112/84 (14C), UMUC5 (141)), and UMUC11 (14E).
(§6) Synergy was measured across the Chloroquinoxaline Sulfonamide titration with 1000 nM Compound A by Bliss Independence analysis.

[2] = tested on: RT112/84
Method: as §1, §2, §3, §4, §5, §6

[3] = tested on: UMUC11
Method: as §1, §2, §3, §4, §5, §6

[4] = tested on: UMUC5
Method: as §1, §2, §3, §4, §5, §6

## Cc1ccc(NS(=O)(=O)c2cccc(C#N)c2)c2[nH]cc(C#N)c12 [Compound E7820, 3-cyano-N-(3-cyano-4-methyl-1H-indol-7-yl)benzenesulfonamide]
[1]; SPLAM 0.04 nM
  GDI: 100
[1]; SPLAM 0.1 nM
  GDI: 100
[1]; SPLAM 0.2 nM
  GDI: 100
[1]; SPLAM 0.3 nM
  GDI: 100
[1]; SPLAM 0.6 nM
  GDI: 100
[1]; SPLAM 1.2 nM
  GDI: 100
[1]; SPLAM 2.4 nM
  GDI: 100
[1]; SPLAM 4.9 nM
  GDI: 100
[1]; SPLAM 9.8 nM
  GDI: 100
[1]; SPLAM 19.5 nM
  GDI: 100
[1]; SPLAM 39.1 nM
  GDI: 100
[1]; SPLAM 78.1 nM
  GDI: 100
[1]; SPLAM 156.3 nM
  GDI: 100
[1]; SPLAM 312.5 nM
  GDI: 76
[1]; SPLAM 625 nM
  GDI: 13
[1]; SPLAM 1250 nM
  GDI: 4
[1]; SPLAM 2500 nM
  GDI: 1
[1]; SPLAM 5000 nM
  GDI: −13**
[1]; SPLAM 10000 nM
  GDI: −64**
[1]; SPLAM 20000 nM
  GDI: −46**
[2]; SPLAM 0.04 nM
  GDI: 89
[2]; SPLAM 0.1 nM
  GDI: 94
[2]; SPLAM 0.2 nM
  GDI: 100
[2]; SPLAM 0.3 nM
  GDI: 100
[2]; SPLAM 0.6 nM
  GDI: 100
[2]; SPLAM 1.2 nM
  GDI: 100
[2]; SPLAM 2.4 nM
  GDI: 100
[2]; SPLAM 4.9 nM
  GDI: 94
[2]; SPLAM 9.8 nM
  GDI: 100
[2]; SPLAM 19.5 nM
  GDI: 100
[2]; SPLAM 39.1 nM
  GDI: 100
[2]; SPLAM 78.1 nM
  GDI: 100
[2]; SPLAM 156.3 nM
  GDI: 90
[2]; SPLAM 312.5 nM
  GDI: 31
[2]; SPLAM 625 nM
  GDI: 6
[2]; SPLAM 1250 nM
  GDI: −35**
[2]; SPLAM 2500 nM
  GDI: −84**
[2]; SPLAM 5000 nM
  GDI: −100**
[2]; SPLAM 10000 nM
  GDI: −100**
[2]; SPLAM 20000 nM
  GDI: −100**
[3]; SPLAM 0.04 nM
  GDI: 100
[3]; SPLAM 0.1 nM
  GDI: 100
[3]; SPLAM 0.2 nM
  GDI: 100
[3]; SPLAM 0.3 nM
  GDI: 100
[3]; SPLAM 0.6 nM
  GDI: 100
[3]; SPLAM 1.2 nM
  GDI: 100
[3]; SPLAM 2.4 nM
  GDI: 100
[3]; SPLAM 4.9 nM
  GDI: 100
[3]; SPLAM 9.8 nM
  GDI: 100
[3]; SPLAM 19.5 nM
  GDI: 100
[3]; SPLAM 39.1 nM
  GDI: 100
[3]; SPLAM 78.1 nM
  GDI: 100
[3]; SPLAM 156.3 nM
  GDI: 100
[3]; SPLAM 312.5 nM
  GDI: 76
[3]; SPLAM 625 nM
  GDI: 31
[3]; SPLAM 1250 nM
  GDI: 11
[3]; SPLAM 2500 nM
  GDI: 5
[3]; SPLAM 5000 nM
  GDI: 4
[3]; SPLAM 10000 nM
  GDI: 3
[3]; SPLAM 20000 nM
  GDI: 1
[4]; SPLAM 0.04 nM
  GDI: 100
[4]; SPLAM 0.1 nM
  GDI: 100
[4]; SPLAM 0.2 nM
  GDI: 100
[4]; SPLAM 0.3 nM
  GDI: 100
[4]; SPLAM 0.6 nM
  GDI: 100
[4]; SPLAM 1.2 nM
  GDI: 100
[4]; SPLAM 2.4 nM
  GDI: 100
[4]; SPLAM 4.9 nM
  GDI: 100
[4]; SPLAM 9.8 nM
  GDI: 100
[4]; SPLAM 19.5 nM
  GDI: 100
[4]; SPLAM 39.1 nM
  GDI: 100
[4]; SPLAM 78.1 nM
  GDI: 100
[4]; SPLAM 156.3 nM
  GDI: 99
[4]; SPLAM 312.5 nM
  GDI: 73
[4]; SPLAM 625 nM
  GDI: 31
[4]; SPLAM 1250 nM
  GDI: 15
[4]; SPLAM 2500 nM
  GDI: 15
[4]; SPLAM 5000 nM
  GDI: 7
[4]; SPLAM 10000 nM
  GDI: 6
[4]; SPLAM 20000 nM
  GDI: 3
